Patent publication US20260265675A1, “Methods for Enhanced Gene Expression in Microorganisms” (ALGAE-C INC., priority 2023, published 2026)

Assays:
Assay type in all cases: cell-based, Chlamydomonas reinhardtii
mVenus [1] = assay: mVenus expression after 6-day treatment with SAHA analogs and other HDAC inhibitors (96 well liquid culture, flow cytometry and plate reader); details: for expression of the transgene: mVenus transgene in Chlamydomonas reinhardtii, compared with other histone deacetylase inhibitors; for frequency of mVenus-positive cells / increase of amount of mVenus inside each cell (mean fluorescence intensity) / increase of frequency of mVenus-positive cells: day 3 post-treatment
Procedure: For the SAHA (vorinostat), belinostat, dacinostat, panobinostat, mocetinostat, entinostat, and romidepsin series of treatments (comparison between various SAHA analogs and other HDAC inhibitors), inoculums of 10^5 cells in late exponential phase of growth were transferred in 200 μL of TAP medium in 96 well plates and were treated with 5 μM of each histone deacetylase inhibitor for 6 days. DMSO was used as a negative control.
(§1) Growth curves were obtained using a Synergy H1 plate reader (Biotek, Agilent), from two or three biological replicates for each strain studied as in (Molino et al., 2022). For SAHA main treatments, 250 μL samples of 50 mL cultures were added in 96 well flat bottom microplates (Corning Costar 96-Well, Cell Culture-Treated, Fisher Scientifics). The OD absorbance was read at 750 nm. Bottom read scan mode mean fluorescence was measured with Excitation (Ex): 500 nm/Emission (Em): 541 nm for mVenus; and bottom read fluorescence Ex: 475 nm/Em: 650 nm for chlorophyll.
(§2) A Cytomics FC500 cytometer equipped with Argon (488 nm) and HeNe (633 nm) lasers were used to measure mVenus emission on the FL1 channel (525/15 nm), and chloroplast fluorescence on the FL4 channel (675/15 nm) (Beckman Coulter Life Sciences). At least 10 000 events were acquired. A homogeneous cloud of intact cells was first gated based on size (FSC) and granulosity (SSC). Then a daughter gate selected the cloud of cells with homogenous chlorophyll autofluorescence. The % of mVenus^+ cells was measured on this daughter population with a gate in the FL1 channel that excluded cells with autofluorescence levels similar to the negative controls. Cells were considered mVenus^+ when both the % of gated mVenus^+ cells (and >0.1%) and mVenus mean fluorescence intensity were higher than the values of the WT controls. Propidium iodide (Thermo Fisher) was used to verify viability and acquired on the FL3 channel (620/20 nm). To select for palmelloid cells, a second gate that included events with a minimum of 2-fold increase in FSC mean intensity was drawn, similarly to (Cheloni and Slaveykova, 2021). In that case, cells were acquired on a Beckman Cytoflex S equipped with violet (405 nm), blue (488 nm), yellow-green (561 nm) and red (638 nm) lasers. Chlorophyll autofluorescence was detected in the PerCP channel (690/50 nm), mVenus on the FITC (525/40BP). Statistics were obtained using BD FlowJo version 10 software (BD Biosciences, La Jolla, CA, USA, 2020).

C. reinhardtii [2] = assay: Chlorophyll content observed by culture colour at higher SAHA concentrations
mVenus [3] = assay: mVenus expression after one year of storage, 72 h treatment with histone deacetylase inhibitors (flow cytometry); details: SAHA 5 μM, cells stored for one year after transformation
Excerpt: as §2, with “Statistics were obtained using BD FlowJo version 10 software (BD Biosciences, La Jolla, CA, USA, 2020).” left out

C. reinhardtii [4] = assay: Growth curve / growth kinetic (OD 750 nm)
Procedure: […] DMSO was used as a negative control.
as §1

mVenus mRNA = mVenus mRNA relative expression by RT-qPCR (normalized on histone H3); details: day 6
Procedure: 4 mL of a 6 days C. reinhardtii grown culture were harvested and centrifuged in Eppendorf tube for 5 min at 4000 g. Cells were lysed by immersion in liquid nitrogen for 1 min. Total RNA was extracted using Invitrogen™ TRIzol™ reagent (Life technologies, Thermo Fisher Scientifics) according to the manufacturer's protocol with minor modifications, including the addition of NaCl at a final concentration of 100 mM in the isopropanol at the nucleic acids precipitation step. Samples were further treated with Turbo DNase (Invitrogen™ TURBO DNA-free™ Kit, Thermo Fisher Scientifics) according to the manufacturer's instructions. RNA yield and quality were determined with 260 nm/280 nm absorbance ratio obtained on a Nanodrop instrument (Thermo Fisher Scientific). Samples of <100 ng total RNA were subjected to reverse transcription and qPCR amplification in a single reaction using the Luna® Universal One-Step RT-qPCR Kit Protocol (New England Biolabs Canada). Briefly, 1 μl of RNA were subjected to reverse transcription performed at 55° C. for 10 minutes. Initial denaturation was 1 min at 95° C. followed by 45 cycles of denaturation for 10 seconds, extension for 30 seconds at 60° C. […] SYBR Green fluorescence was recorded in the FAM channel of a CFX connect real time system (BioRad). […] Relative mRNA expression levels were determined according to the 2^(−ddCt) method.

mVenus [5] = assay: mVenus expression by flow cytometry after 24 h treatment with silencing inhibitors (96 well liquid culture)
Procedure: For the sirtinol, SAHA, OSS-128167, nicotinamide and sodium butyrate series of treatments (comparison between various HDAC inhibitors), inoculums of 10^5 cells in late exponential phase of growth were transferred in 200 μL of TAP medium in 96 well plates and were treated with 50 μM, 2.5 μM, 100 μM, 1 mM and 5 mM of each histone deacetylase inhibitor respectively for 24 hours; a mix of all inhibitors was also tested. DMSO was used as a negative control.
as §2

C. reinhardtii [6] = assay: Palmelloid colony formation and motility (microscopy, flow cytometry)
Procedure: (§3) For the SAHA main treatments, inoculum of 10^5 cells in late exponential phase of growth were transferred in 50 mL of TAP medium in 125 mL shake flasks and were treated with 5 μM for 12 days (to evaluate mVenus expression overtime), or with 2.5, 5 and 10 μM for 6 days (to evaluate SAHA toxicity over cell viability). DMSO was used as a negative control.
as §2

mVenus [7] = assay: mVenus expression followed over 12 days after SAHA treatment in flask cultures (microplate reader and flow cytometer)
Procedure: as §3, §1, §2

C. reinhardtii [8] = assay: Cell viability (membrane integrity) by propidium iodide staining, flow cytometry; details: SAHA 2.5, 5 and 10 μM, day 6
Procedure: as §3
as §2, with “To select for palmelloid cells, a second gate that included events with a minimum of 2-fold increase in FSC mean intensity was drawn, similarly to (Cheloni and Slaveykova, 2021). In that case, cells were acquired on a Beckman Cytoflex S equipped with violet (405 nm), blue (488 nm), yellow-green (561 nm) and red (638 nm) lasers.” left out, “Statistics were obtained using BD FlowJo version 10 software (BD Biosciences, La Jolla, CA, USA, 2020).” left out

[9] = SAHA 2.5 μM, transformed clones
[10] = SAHA 5 μM, compared to untreated or DMSO treated cells

## O=C(/C=C/c1cccc(S(=O)(=O)Nc2ccccc2)c1)NO [Belinostat, (2E)-N-Hydroxy-3-[3-(phenylsulfamoyl)phenyl]prop-2-enamide]
mVenus [1]
  expression of the transgene: substantially increase

## O=C(/C=C/c1ccc(CN(CCO)CCc2c[nH]c3ccccc23)cc1)NO [Dacinostat, (E)-N-hydroxy-3-[4-[[2-hydroxyethyl-[2-(1H-indol-3-yl)ethyl]amino]methyl]phenyl]prop-2-enamide]
mVenus [1]
  expression of the transgene: substantially increase

## Cc1[nH]c2ccccc2c1CCNCc1ccc(/C=C/C(=O)NO)cc1 [Panobinostat, (2E)-N-hydroxy-3-[4-({[2-(2-methyl-1H-indol-3-yl)ethyl]amino}methyl)phenyl]acrylamide]
mVenus [1]
  expression of the transgene: substantially increase

## O=C(CCCCCCC(=O)Nc1ccccc1)NO [SAHA, N-hydroxy-N′-phenyloctanediamide]
C. reinhardtii [2]; 80 μM SAHA
  chlorophyll content, culture colour: red tint
C. reinhardtii [2]; 20 and 40 μM SAHA
  chlorophyll content, culture colour: more yellow tint
mVenus [3]
  frequency of cells expressing mVenus: increased
C. reinhardtii [4]; 80 μM SAHA
  growth kinetic: totally inhibited
C. reinhardtii [4]; 20 and 40 μM SAHA
  growth kinetic: inhibited partially
C. reinhardtii [4]; SAHA 5 μM, 12 days
  overall growth of microalgae: did not impact the overall growth
mVenus mRNA; clone 16, SAHA 5 μM
  increase of relative mVenus mRNA expression over histone H3 mRNA: 7 fold
mVenus mRNA; clone 17, SAHA 5 μM
  increase of relative mVenus mRNA expression over histone H3 mRNA: 6.6 fold
mVenus [5]; [9]
  frequency of cells expressing mVenus: increased
  level of expression of mVenus per cell: increased
mVenus [5]; clone 16, SAHA 2.5 μM
  % of mVenus cells: 68.1%
  increase in protein expression (mean fluorescence intensity): 4.6 fold
mVenus [5]; clone 16, SAHA 2.5 μM, versus 13.3% without SAHA
  increase of % of mVenus cells: 5.1 fold
C. reinhardtii [6]; SAHA 5 μM, day 3 and 6 post-treatment, in most cases
  palmelloid colonies quantified by flow cytometry: increased
C. reinhardtii [6]; SAHA 5 and 10 μM, 6 days
  palmelloid colonies (microscopy): accumulation of small palmelloid colonies
C. reinhardtii [6]; SAHA 20, 40 and 80 μM, increasing concentrations
  palmelloid colonies (microscopy): Larger palmelloid colonies
C. reinhardtii [6]; SAHA above 2.5 μM
  motility: progressively lost
C. reinhardtii [6]; SAHA, FIG. 6
  phenotype induced in C. reinhardtii: induces a palmelloid phenotype
mVenus [1]; clone 16, 5 μM
  frequency of mVenus-positive cells: 73.1%
  increase of amount of mVenus inside each cell (mean fluorescence intensity): 3-4 fold
  increase of frequency of mVenus-positive cells: 8.6 fold
mVenus [1]; clone 17, 5 μM
  frequency of mVenus-positive cells: 59.9%
  increase of amount of mVenus inside each cell (mean fluorescence intensity): 2-5 fold
  increase of frequency of mVenus-positive cells: 27 fold
mVenus [1]
  expression of the transgene: substantially increase
mVenus [7]; SAHA 5 μM at day 0, around day 4-5, all clones
  mVenus fluorescence: steadily increased
mVenus [7]; SAHA 5 μM, 12 days, flask cultures
  transgene expression over culture period: steadily increases
mVenus [7]; SAHA 5 μM, around day 7-8
  decline in mVenus production in stationary phase: did not prevent the progressive decline in production
mVenus [7]; [10]
  mVenus fluorescence per cell at day 12: more mVenus fluorescence per cells
  population of mVenus expressing cells at day 12: more frequent population of mVenus expressing cells
mVenus [7]; SAHA 5 μM, day 5-7, all the clones
  % of producing cells (mVenus+) at maximum production: more than 74%
mVenus [7]; SAHA 5 μM, end of the exponential phase
  time of maximum production of mVenus: 5 to 7 days
mVenus [7]; SAHA 5 μM, most clones (except 16)
  % mVenus+ cells at day 12: < 10%
C. reinhardtii [8]
  % of PI+ cells: slightly increased
  % of transformant cells remaining intact: ~ 90%
